As a reminder, the EC50 is the midpoint of the concentration-response curve. A higher EC50 goes with lower potency in that assay.

Where only a bound is given, the exact number is not on record here.

The target in the assay is T1, hFXR (Homo sapiens, UniProt Q96RI1).
T1 construct: expressed in transfected cells; host or cells: CV-1 cells
T1 sequence (Q96RI1 1-486): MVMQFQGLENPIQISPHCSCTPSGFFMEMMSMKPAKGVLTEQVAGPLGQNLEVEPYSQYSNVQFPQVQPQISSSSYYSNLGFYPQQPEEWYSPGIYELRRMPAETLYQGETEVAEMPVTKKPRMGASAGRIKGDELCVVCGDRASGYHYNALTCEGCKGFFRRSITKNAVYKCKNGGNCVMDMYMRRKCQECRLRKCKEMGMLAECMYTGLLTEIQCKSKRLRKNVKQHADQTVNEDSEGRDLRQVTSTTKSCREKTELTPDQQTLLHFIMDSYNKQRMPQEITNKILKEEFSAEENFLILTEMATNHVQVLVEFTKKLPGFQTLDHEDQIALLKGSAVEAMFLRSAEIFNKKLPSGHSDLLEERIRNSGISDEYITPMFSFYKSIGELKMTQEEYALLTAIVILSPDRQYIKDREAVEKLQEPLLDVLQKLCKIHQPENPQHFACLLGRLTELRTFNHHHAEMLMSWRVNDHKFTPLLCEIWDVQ
T1 sequence (P19793 1-462 partner): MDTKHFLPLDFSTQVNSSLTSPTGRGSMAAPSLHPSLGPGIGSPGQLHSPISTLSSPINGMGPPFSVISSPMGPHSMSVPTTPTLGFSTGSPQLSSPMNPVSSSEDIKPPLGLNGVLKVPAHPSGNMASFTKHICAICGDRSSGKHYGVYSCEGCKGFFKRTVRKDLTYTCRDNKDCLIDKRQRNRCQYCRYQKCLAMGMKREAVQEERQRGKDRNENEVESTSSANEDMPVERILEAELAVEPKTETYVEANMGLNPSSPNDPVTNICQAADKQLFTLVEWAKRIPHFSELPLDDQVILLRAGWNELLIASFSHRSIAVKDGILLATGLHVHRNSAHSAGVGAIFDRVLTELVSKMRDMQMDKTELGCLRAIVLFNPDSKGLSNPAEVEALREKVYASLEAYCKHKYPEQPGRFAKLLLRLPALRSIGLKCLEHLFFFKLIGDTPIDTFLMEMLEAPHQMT
In words: In Vitro FXR Assay (TK): TK-ECRE-luc reporter in transfected CV-1 cells. The note with it: CV-1 cells transfected with hFXR, hRXR, pCMX-YFP, 18 hrs incubation, luminescence. In kind it is cell-based. As for the experimental part:
Example B-1: In Vitro FXR Assay (TK)
CV-1 cells were seeded at a density of 2,000,000 cells in a T175 flask with DMEM+10% charcoal double-stripped FBS and incubated at 37° C. in 5% CO2 for 18 h (O/N).
After 18 h of incubation, the medium in the T175 flask was changed with fresh DMEM+10% charcoal super-stripped serum. In a polypropylene tube, 2500 μL OptiMEM (Life Technologies, Cat #31985-062) was combined with expression plasmids for hFXR, hRXR, TK-ECRE-luc and pCMX-YFP. The tube was then briefly vortexed and incubated at room temperature for 5 minutes. Transfection reagent (X-tremeGENE HP from Roche, Cat #06 366 236 001) was added to the OptiMEM/plasmid mixture vortexed and incubated at room temperature for 20 minutes. Following incubation, the transfection reagent/DNA mixture complex was added to cells in the T175 flask and the cells were incubated at 37° C. in 5% CO2 for 18 h (O/N).
Compounds were serially diluted in DMSO and added to transfected CV-1 cells. The cells were then incubated for 18 hrs. The next day cells were lysed and examined for luminescence.
In turn, `COc1ccc(C23CCC(CN(c4cc(-c5cnn(C(C)(C)C(F)(F)F)c5)ccn4)C(=O)[C@H]4CC[C@H](OC(=O)N5CC(O)C5)CC4)(CC2)CC3)cc1C` [Compound 4.09, 4-(((4-(4-Methoxy-3-methylphenyl)bicyclo[2.2.2]octan-1-yl)methyl)(4-(1-(1,1,1-trifluoro-2-methylpropan-2-yl)-1H-pyrazol-4-yl)pyridin-2-yl)carbamoyl)cyclohexyl trans-3-hydroxyazetidine-1-carboxylate] showed an EC50 of at most 0.01 µM.

Molecule `COc1ccc(C23CCC(CN(c4cc(-c5cnn(C(C)(C)C)c5)ccn4)C(=O)[C@H]4CC[C@H](OC(=O)N5CC[C@@H](O)C5)CC4)(CC2)CC3)cc1C` [Compound 2.33, (R)-4-((4-(1-(tert-Butyl)-1H-pyrazol-4-yl)pyridin-2-yl)((4-(4-methoxy-3-methylphenyl)bicyclo[2.2.2]octan-1-yl)methyl)carbamoyl) cyclohexyl trans-3-hydroxypyrrolidine-1-carboxylate] came in with an EC50 of at most 0.01 µM.

With `CCC(C)(C)n1cc(-c2ccnc(N(CC34CCC(c5ccc(OC)c(C)c5)(CC3)CC4)C(=O)[C@H]3CC[C@H](OC(=O)N4CCC(O)CC4)CC3)c2)cn1` [Compound 4.02, 4-(((4-(4-Methoxy-3-methylphenyl)bicyclo[2.2.2]octan-1-yl)methyl)(4-(1-(tert-pentyl)-1H-pyrazol-4-yl)pyridin-2-yl)carbamoyl) cyclohexyl trans-4-hydroxypiperidine-1-carboxylate], the EC50 was at most 0.01 µM.

As for `CCC(C)(CC)n1cc(-c2ccnc(N(CC34CCC(c5ccc(OC)c(C)c5)(CC3)CC4)C(=O)[C@H]3CC[C@H](OC(=O)NCCCO)CC3)c2)cn1` [Compound 4.07, 4-(((4-(4-Methoxy-3-methylphenyl)bicyclo[2.2.2]octan-1-yl)methyl)(4-(1-(3-methylpentan-3-yl)-1H-pyrazol-4-yl)pyridin-2-yl)carbamoyl)cyclohexyl trans-(3-hydroxypropyl)carbamate], the EC50 was at most 0.01 µM.

Take `COc1ccc([C@H]2CC[C@H](CN(c3cc(-c4cnn(C(C)(C)C)c4)ccn3)C(=O)[C@H]3CC[C@H](OC(=O)N4CCC(O)CC4)CC3)CC2)cc1C` [Compound 1.10, trans-4-((4-(1-(tert-Butyl)-1H-pyrazol-4-yl)pyridin-2-yl)((trans-4-(4-methoxy-3-methylphenyl)cyclohexyl)methyl)carbamoyl) cyclohexyl 4-hydroxypiperidine-1-carboxylate]: the concentration for a half-maximal effect (EC50) was 0.01 to 1 µM.

On to `CCC(C)(CC)n1cc(-c2ccnc(N(CC34CCC(c5ccc(OC)c(C)c5)(CC3)CC4)C(=O)[C@H]3CC[C@H](OC(=O)N4CC(O)C4)CC3)c2)cn1` [Compound 4.04, 4-(((4-(4-Methoxy-3-methylphenyl)bicyclo[2.2.2]octan-1-yl)methyl)(4-(1-(3-methylpentan-3-yl)-1H-pyrazol-4-yl)pyridin-2-yl)carbamoyl)cyclohexyl trans-3-hydroxyazetidine-1-carboxylate], for which the EC50 was at most 0.01 µM.

Molecule `COc1ccc(C23CCC(CN(c4cc(-c5cnc(C(C)(C)C)s5)ccn4)C(=O)[C@H]4CC[C@H](OC(=O)N5CC(S(C)(=O)=O)C5)CC4)(CC2)CC3)cc1C` [Compound 2.03, 4-((4-(2-(tert-Butyl)thiazol-5-yl)pyridin-2-yl)((4-(4-methoxy-3-methylphenyl)bicyclo[2.2.2]octan-1-yl)methyl)carbamoyl) (trans-cyclohexyl) 3-(methylsulfonyl)azetidine-1-carboxylate] came in with an EC50 of at most 0.01 µM.

As to `CCC(C)(CC)n1cc(-c2ccnc(N(CC34CCC(c5ccc(OC)c(C)c5)(CC3)CC4)C(=O)[C@H]3CC[C@H](OC(=O)N4CC(C)(O)C4)CC3)c2)cn1` [Compound 4.05, 4-(((4-(4-Methoxy-3-methylphenyl)bicyclo[2.2.2]octan-1-yl)methyl)(4-(1-(3-methylpentan-3-yl)-1H-pyrazol-4-yl)pyridin-2-yl)carbamoyl)cyclohexyl trans-3-hydroxy-3-methylazetidine-1-carboxylate], the 50% effective concentration (EC50) was at most 0.01 µM.

The molecule `COc1ccc(C23CCC(CN(c4cc(-c5coc(C(C)(C)C)n5)ccn4)C(=O)[C@H]4CC[C@H](OC(=O)N5CC(S(C)(=O)=O)C5)CC4)(CC2)CC3)cc1C` [Compound 2.13, 4-((4-(2-(tert-Butyl)oxazol-4-yl)pyridin-2-yl)((4-(4-methoxy-3-methylphenyl)bicyclo[2.2.2]octan-1-yl)methyl)carbamoyl) (trans-cyclohexyl) 3-(methylsulfonyl)azetidine-1-carboxylate] returned an EC50 of at most 0.01 µM.

Molecule `COc1ccc(C23CCC(CN(c4cc(-c5coc(C(C)(C)C)n5)ccn4)C(=O)[C@H]4CC[C@H](OC(=O)N5CC(CO)C5)CC4)(CC2)CC3)cc1C` [Compound 2.15, 4-((4-(2-(tert-Butyl)oxazol-4-yl)pyridin-2-yl)((4-(4-methoxy-3-methylphenyl)bicyclo[2.2.2]octan-1-yl)methyl)carbamoyl) (trans-cyclohexyl) 3-(hydroxymethyl)azetidine-1-carboxylate] returned a concentration for a half-maximal effect (EC50) of at most 0.01 µM.

In turn, `COc1ccc(C23CCC(CN(c4cc(-c5cnc(C(C)(C)C)s5)ccn4)C(=O)[C@H]4CC[C@H](OC(=O)N5CCC(N(C)C)C5)CC4)(CC2)CC3)cc1C` (stereo partly drawn) [Compound 2.09, 4-((4-(2-(tert-Butyl)thiazol-5-yl)pyridin-2-yl)((4-(4-methoxy-3-methylphenyl)bicyclo[2.2.2]octan-1-yl)methyl)carbamoyl)cyclohexyl 3-(dimethylamino)pyrrolidine- trans-1-carboxylate] came in with an EC50 of 0.01 to 1 µM.

Regarding `COc1c(C)cc(C23CCC(CN(c4cc(-c5cnn(C(C)(C)C)c5)ncn4)C(=O)[C@H]4CC[C@H](OC(=O)N5CC(O)C5)CC4)(CC2)CC3)cc1C` [Compound 2.37, 4-((6-(1-(tert-Butyl)-1H-pyrazol-4-yl)pyrimidin-4-yl)((4-(4-methoxy-3,5-dimethylphenyl)bicyclo[2.2.2]octan-1-yl)methyl)carbamoyl) (trans-cyclohexyl) 3-hydroxyazetidine-1-carboxylate], the EC50 fell in the range of 0.01 to 1 µM.

For `COc1ccc(C23CCC(CN(c4cc(-c5cnn(C(C)(C)C)c5)ccn4)C(=O)[C@H]4CC[C@H](OC(=O)N5CC(S(C)(=O)=O)C5)CC4)(CC2)CC3)cc1C` [Compound 2.23, 4-((4-(1-(tert-Butyl)-1H-pyrazol-4-yl)pyridin-2-yl)((4-(4-methoxy-3-methylphenyl)bicyclo[2.2.2]octan-1-yl)methyl)carbamoyl) (trans-cyclohexyl) 3-(methylsulfonyl)azetidine-1-carboxylate], the EC50 was at most 0.01 µM.

For the molecule `COc1ccc(C23CCC(CN(c4cc(-c5cnc(C(C)(C)C)s5)ccn4)C(=O)[C@H]4CC[C@H](OC(=O)N5CCC(O)CC5)CC4)(CC2)CC3)cc1C` [Compound 2.05, 4-((4-(2-(tert-Butyl)thiazol-5-yl)pyridin-2-yl)((4-(4-methoxy-3-methylphenyl)bicyclo[2.2.2]octan-1-yl)methyl)carbamoyl)cyclohexyl 4-hydroxypiperidine- trans-1-carboxylate], the EC50 was at most 0.01 µM.

The molecule `COc1ccc(C23CCC(CN(c4cc(-c5cnc(C(C)(C)C)s5)ccn4)C(=O)[C@H]4CC[C@H](OC(=O)N5CC(C)(O)C5)CC4)(CC2)CC3)cc1C` [Compound 2.01, 4-((4-(2-(tert-Butyl)thiazol-5-yl)pyridin-2-yl)((4-(4-methoxy-3-methylphenyl)bicyclo[2.2.2]octan-1-yl)methyl)carbamoyl) (trans-cyclohexyl) 3-hydroxy-3-methylazetidine-1-carboxylate] displayed a half-maximal effective concentration (EC50) of at most 0.01 µM.

Regarding `COc1ccc(C23CCC(CN(c4cc(-n5ccc(C(C)(C)C)n5)ccn4)C(=O)[C@H]4CC[C@H](OC(=O)N5CC(O)C5)CC4)(CC2)CC3)cc1C` [Compound 2.35, 4-((4-(3-(tert-Butyl)-1H-pyrazol-1-yl)pyridin-2-yl)((4-(4-methoxy-3-methylphenyl)bicyclo[2.2.2]octan-1-yl)methyl)carbamoyl) cyclohexyl trans-3-hydroxyazetidine-1-carboxylate], the EC50 was 0.01 to 1 µM.

(Values after patent US11773094B2, “Farnesoid X receptor agonists and uses thereof” (Metacrine, Inc., priority 2018, dated 2023).)
